Source: patent US11970437B1, “8-((4-hydroxynaphthalen-1-yl)diazenyl)naphthalene-1,3-disulfonic acid as an antioxidant compound” (KING FAISAL UNIVERSITY, priority 2023, dated 2024)

Assay: DPPH radical scavenging antioxidant test
Format: biochemical
Conditions: for Inhibition (radical scavenging inhibition): 0.2 mL DPPH (0.75 mM), compound 3 μM in ethanol, 30 minutes in the dark, 517 nm
Protocol: The antioxidant properties of the 8-((4-hydroxynaphthalen-1-yl)diazenyl)naphthalene-1,3-disulfonic acid compound were studied by adding 0.2 mL DPPH (0.75 mM)) to 8-((4-hydroxynaphthalen-1-yl)diazenyl)naphthalene-1,3-disulfonic acid (III) (3 μM) in ethanol. After 30 minutes of incubation in the dark, the absorbance was read against a blank at 517 nm. Ascorbic acid (vitamin C) was used as standard antioxidants (positive control). A blank sample was prepared by 0.2 ml of DPPH in 3 mL ethanol. A negative control sample was run using ethanol instead of the sample. The radical scavenging inhibition was calculated using the following equation: […]

| SMILES | Inhibition (radical scavenging inhibition) | antioxidant potential (vanishing DPPH radical colors at 517 nm) (DPPH in vitro test, vitamin C as positive control) |
| --- | --- | --- |
| O=S(=O)(O)c1cc(S(=O)(=O)O)c2c(/N=N/c3ccc(O)c4ccccc34)cccc2c1 [Product III, 8-((4-hydroxynaphthalen-1-yl)diazenyl)naphthalene-1,3-disulfonic acid] | 52% | high potential as an antioxidant compared to vitamin C |
| O=C1O[C@H]([C@@H](O)CO)C(O)=C1O [vit c, Ascorbic acid, reference compound] | 74% |  |
